This is an account of results in ChEMBL document CHEMBL1201862, “PubChem BioAssay data set” (2004).

Test systems include HCT-116; CCRF-CEM; PC-3; U-251; UACC-62; SF-268; T47D; UACC-257; K562; SF-539; ACHN; HT-29; MCF7; MDA-MB-435; A549; SNB-19; SF-295; UO-31; HCC 2998; MDA-MB-231.
What all share (assay): DTP human tumour cell line panel, 48 h

Where “and” joins values, the source holds several entries; their conditions need not be identical. Equal values may be shown once.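 Following 48 hours of exposure in 96-well plates, responses at five concentrations were used to interpolate endpoints linearly. The concentration for 50% growth inhibition is given as GI50.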 Calls of active or inactive are those of the source. Cut-off read from the data, not from the text of the source: active = GI50 up to about 1.1 µM and inactive = higher.

For the molecule `COc1ccc(/C=C/c2ccnc3ccccc23)cc1`, the GI50 (in general, the concentration that inhibits growth by half) was 15.7 µM (inactive) with HCT-116; 10.5 µM (inactive) in the assay on CCRF-CEM; 18.2 µM (inactive) with PC-3; 17.1 µM (inactive) with U-251; 15.7 µM (inactive) in the assay with UACC-62; 15.2 µM (inactive) in the assay with SF-268. Moreover, the GI50 in the assay on T47D is 4.9 µM (inactive); with UACC-257 it was 15.3 µM (inactive); in the assay with K562, 6.34 µM (inactive); with SF-539, 21.8 µM (inactive); in the assay on ACHN, 13.9 µM (inactive); with HT-29, 10.4 µM (inactive). For the same molecule, the GI50 in the assay on MCF7 is 15.6 µM (inactive); with MDA-MB-435, 17.1 µM (inactive); in the assay on A549, 15.4 µM (inactive); in the assay on SNB-19, 19.3 µM (inactive); in the assay with SF-295 it was 16.9 µM (inactive); in the assay with UO-31 it was 0.021 µM (active). Also, in the assay on HCC 2998, the GI50 is 20.1 µM (inactive).
For the molecule `O=C(Cc1ccccc1)NN1C(=O)/C(=C\c2cccc(O)c2)S/C1=N\c1ccccc1`, the GI50 was > 100 µM (inactive) with HCT-116; > 100 µM (inactive) in the assay with U-251; > 100 µM (inactive) in the assay on UACC-62; > 100 µM (inactive) in the assay on SF-268; 57.3 µM (inactive) in the assay on T47D; > 100 µM (inactive) in the assay on UACC-257. Also, the GI50 with MDA-MB-231 is 45.8 µM (inactive); in the assay with SF-539 it was > 100 µM (inactive); with ACHN, > 100 µM (inactive); in the assay with HT-29 it was > 100 µM (inactive); in the assay with MCF7 it was > 100 µM (inactive); with MDA-MB-435, > 100 µM (inactive). In addition, the GI50 with A549 is > 100 µM (inactive); with SNB-19, > 100 µM (inactive); with SF-295 it was > 100 µM (inactive); with UO-31, 55.8 µM (inactive); with HCC 2998, > 100 µM (inactive).
`COc1ccc(-n2c(CCCC(=O)O)nc3c2C(=O)c2ccccc2C3=O)cc1`: the GI50 was 36.6 µM (inactive) in the assay with HCT-116; 36.3 µM (inactive) in the assay on CCRF-CEM; > 100 µM (inactive) in the assay on U-251; 23.4 µM (inactive) with UACC-62; 46.7 µM (inactive) in the assay on SF-268; 88.3 µM (inactive) in the assay on T47D. The GI50 is 27.8 µM (inactive) with UACC-257; 47.3 µM (inactive) in the assay on K562; 63.5 µM (inactive) with MDA-MB-231; > 100 µM (inactive) in the assay with SF-539; 71.3 µM (inactive) with ACHN; 32.6 µM (inactive) in the assay with MCF7. Moreover, the GI50 in the assay with MDA-MB-435 is 26.4 µM (inactive); in the assay with A549, > 100 µM (inactive); in the assay with SNB-19, > 100 µM (inactive); in the assay with SF-295, 43 µM (inactive); with UO-31, > 100 µM (inactive); in the assay on HCC 2998 it was 84.7 µM (inactive).
As to `[O-][S+]1c2ccccc2SCSc2ccccc21`, the GI50 was > 100 µM (inactive) in the assay with HCT-116; > 100 µM (inactive) in the assay with PC-3; > 100 µM (inactive) in the assay on U-251; > 100 µM (inactive) in the assay on UACC-62; > 100 µM (inactive) with SF-268; 97.7 µM (inactive) in the assay with T47D. The GI50 is 16.7 µM (inactive) in the assay with K562; > 100 µM (inactive) in the assay with MDA-MB-231; > 100 µM (inactive) with SF-539; > 100 µM (inactive) in the assay with ACHN; > 100 µM (inactive) with HT-29; > 100 µM (inactive) in the assay on MCF7. Further, the GI50 with A549, in the assay with SNB-19, with SF-295, with UO-31 and with HCC 2998 was > 100 µM (inactive) each time.
For the molecule `O=C1c2ccccc2-c2c1c(-c1ccccc1)c1n2C2(C(=O)c3ccccc3C2=O)C2C(=O)N(c3ccccc3)C(=O)C12` (centres undefined), the GI50 in the assay with HCT-116 is 17.9 µM (inactive); in the assay on CCRF-CEM, 26.1 µM (inactive); in the assay on PC-3 it was 26.6 µM (inactive); in the assay on U-251, 35.9 µM (inactive); in the assay on UACC-62 it was 21.6 µM (inactive); with SF-268, 21.1 µM (inactive). Also, the GI50 with T47D is 16.9 µM (inactive); in the assay with UACC-257, 30.6 µM (inactive); in the assay with SF-539, 15.4 µM (inactive); in the assay with ACHN, 31.9 µM (inactive); with HT-29, 17.7 µM (inactive); in the assay on MCF7 it was 24.8 µM (inactive). For the same molecule, the GI50 was 19.8 µM (inactive) with MDA-MB-435; 85.1 µM (inactive) in the assay on A549; 27.7 µM (inactive) with SNB-19; 34.4 µM (inactive) with SF-295; 28.4 µM (inactive) in the assay with UO-31.
Consider `Cc1ccc(-n2cnc3c(N/N=C4\SCC(=O)N4c4ccccc4)ncnc32)cc1`, for which the GI50 in the assay with HCT-116 is 2.63 µM (inactive); in the assay on CCRF-CEM, 0.437 µM (active); in the assay on PC-3, 3.3 µM (inactive); in the assay with U-251, 4.72 µM (inactive); in the assay with UACC-62, 4.37 µM (inactive); in the assay on SF-268, 4.88 µM (inactive). The GI50 with T47D is 3.97 µM (inactive); in the assay on UACC-257, 3.87 µM (inactive); in the assay on K562 it was 1.29 µM (inactive); in the assay on MDA-MB-231, 3.3 µM (inactive); in the assay on SF-539, 1.87 µM (inactive); in the assay on ACHN it was 5.78 µM (inactive). Moreover, the GI50 in the assay with HT-29 was 3.44 µM (inactive); in the assay with MDA-MB-435, 2.02 µM (inactive); with A549 it was 11.9 µM (inactive); in the assay on SNB-19 it was 11.7 µM (inactive); in the assay with SF-295, 13.3 µM (inactive); with UO-31 it was 1.15 µM (inactive).
For the molecule `O=c1cc(NNc2cccc(F)c2)[nH]c(=O)[nH]1`, the GI50 in the assay on HCT-116 was 17.3 µM (inactive); with CCRF-CEM it was 22.4 µM (inactive); with PC-3, > 100 µM (inactive); in the assay with U-251, 17.2 µM (inactive); in the assay with UACC-62, 35 µM (inactive); in the assay on SF-268, > 100 µM (inactive). Moreover, the GI50 with T47D was 14.9 µM (inactive); in the assay with UACC-257 it was 17.9 µM (inactive); with K562 it was 27.3 µM (inactive); in the assay with MDA-MB-231, 16.7 µM (inactive); in the assay with SF-539, 38.9 µM (inactive); in the assay on ACHN it was 35.6 µM (inactive). The GI50 is 16.3 µM (inactive) in the assay on HT-29; > 100 µM (inactive) with A549; > 100 µM (inactive) in the assay on SNB-19; > 100 µM (inactive) in the assay on SF-295; 29.4 µM (inactive) with UO-31; 95.9 µM (inactive) in the assay on HCC 2998.
Consider `Cc1ccc(Nc2nc(=O)c3c([nH]c4ccccc43)s2)cc1`, for which the GI50 in the assay on CCRF-CEM is 20.1 µM (inactive); in the assay with PC-3, 15.1 µM (inactive); in the assay with U-251, 12.8 µM (inactive); in the assay on UACC-62, 3.84 µM (inactive); in the assay on SF-268, 16.7 µM (inactive); in the assay with T47D it was 15.4 µM (inactive). The GI50 was 17.1 µM (inactive) in the assay with UACC-257; 6.27 µM (inactive) in the assay with K562; 17.1 µM (inactive) in the assay on MDA-MB-231; 15.7 µM (inactive) in the assay on SF-539; 16.2 µM (inactive) with ACHN; 10.8 µM (inactive) with HT-29. The GI50 is 2.48 µM (inactive) with MDA-MB-435; 12.6 µM (inactive) in the assay with A549; 26.4 µM (inactive) in the assay on SNB-19; 11.8 µM (inactive) with SF-295; 2.9 µM (inactive) in the assay on UO-31.
Turning to `O=S(=O)(O)c1cc(S(=O)(=O)O)c2cc(/N=N/c3c(O)ccc4ccccc34)ccc2c1`, the GI50 in the assay on HCT-116, with CCRF-CEM, with PC-3, with U-251, with UACC-62 and in the assay with SF-268 was > 100 µM (inactive) each time. The GI50 in the assay with T47D, in the assay on UACC-257, in the assay with K562, with MDA-MB-231, in the assay on ACHN and in the assay on HT-29 was > 100 µM (inactive) in each case. Besides, the GI50 in the assay with MDA-MB-435, in the assay with A549, with SNB-19, with SF-295 and in the assay with UO-31 was > 100 µM (inactive) in each case.
On to `O=C(/C=C/c1ccccc1)c1ccccn1`, for which the GI50 was 10 µM (inactive) and 17.1 µM (inactive) in the assay with CCRF-CEM; 19.1 µM (inactive) and 21.1 µM (inactive) in the assay with PC-3; 14.3 µM (inactive) and 17.9 µM (inactive) with U-251; 16.6 µM (inactive) and 20.6 µM (inactive) in the assay on UACC-62; 23.8 µM (inactive) and 13 µM (inactive) in the assay with T47D; 13.2 µM (inactive) and 16.4 µM (inactive) in the assay on UACC-257. The GI50 in the assay with SF-539 was 17.8 µM (inactive); in the assay with ACHN, 15.5 µM (inactive) and 16.9 µM (inactive); in the assay with HT-29, 20.7 µM (inactive) and 15.5 µM (inactive); in the assay on MCF7 it was 16 µM (inactive); in the assay on MDA-MB-435, 26.5 µM (inactive) and 18.9 µM (inactive); in the assay on A549, 19.4 µM (inactive) and 32.6 µM (inactive). In addition, the GI50 in the assay with SF-295 was 24 µM (inactive) and 18.4 µM (inactive); in the assay on UO-31, 17.3 µM (inactive) and 20.6 µM (inactive); with HCC 2998, 13.8 µM (inactive) and 19.3 µM (inactive).
For the molecule `CCCCCCOC(=O)/C=C/[C@]1(CO)C/C(=C/CC(C(C)C)C(C)C)C(=O)O1`, the GI50 with HCT-116 is 13.2 µM (inactive); with PC-3 it was 11.5 µM (inactive); in the assay on UACC-62, 13.9 µM (inactive); in the assay on SF-268, 10.9 µM (inactive); in the assay with T47D, 16.8 µM (inactive); with UACC-257 it was 16.5 µM (inactive). Moreover, the GI50 in the assay on K562 is 0.406 µM (active); in the assay with ACHN, 6.95 µM (inactive); in the assay on HT-29, 7.33 µM (inactive); in the assay on MCF7, 16 µM (inactive); in the assay with MDA-MB-435, 0.738 µM (active); in the assay on A549, 2.99 µM (inactive). The GI50 is 10.5 µM (inactive) in the assay with SNB-19, 10.4 µM (inactive) with SF-295, 4.46 µM (inactive) in the assay on UO-31 and 2.2 µM (inactive) in the assay with HCC 2998.
